Data taken from ChEMBL document CHEMBL3992495, “Aliphatic and alicyclic camphor imines as effective inhibitors of influenza virus H1N1” (Eur J Med Chem, 2017).
Where a name gives a salt, the structure may show the parent alone.

Assays:
[1] = test system: Influenza A virus (A/Puerto Rico/8/34(H1N1)); experiment: Selectivity index, ratio of CTD50 for MDCK cells to ED50 for Influenza A virus (A/Puerto Rico/8/34(H1N1)); type: toxicity; conditions: dog, read-out: Selectivity Index
[2] = Cytotoxicity against MDCK cells after 48 hrs by MTT assay; type: cell-based, Canis lupus familiaris; conditions: dog, read-out: CTD50
[3] = Antiviral activity against Influenza A virus (A/California/07/09(H1N1)) infected in MDCK cells assessed as inhibition of viral replication after 48 hrs by hemagglutination test; type: functional, Influenza A virus (A/California/07/2009(H1N1)); conditions: read-out: ED50 (the source's name)
[4] = test system: Influenza A virus (A/California/07/09(H1N1)); experiment: Selectivity index, ratio of CTD50 for MDCK cells to ED50 for Influenza A virus (A/California/07/09(H1N1)); type: toxicity; conditions: dog, read-out: Selectivity Index
Influenza A virus = experiment: Antiviral activity against Influenza A virus (A/Puerto Rico/8/34(H1N1)) infected in MDCK cells assessed as inhibition of viral replication after 48 hrs by hemagglutination test; type: functional; conditions: A/Puerto Rico/8/1934(H1N1), read-out: ED50 (the source's name)

For CC1(C)[C@@H]2CC[C@@]1(C)/C(=N/C1CCCCC1)C2, the selectivity ratio [1] was > 83, the CC50 at 48 h [2] was > 1290 µM and the EC50 ([3]; Influenza A virus, MDCK, 48 h) was 55.4 µM. For the same molecule, the selectivity ratio [4] was > 23 and the EC50 (Influenza A virus) was 15.5 µM.

With CCCCCCCCCCCCCCCCCC/N=C1\C[C@H]2CC[C@]1(C)C2(C)C the selectivity ratio [1] was < 1, the CC50 at 48 h [2] was > 744 µM and the EC50 ([3]; Influenza A virus, MDCK, 48 h) was 744 µM. For the same molecule, the selectivity ratio [4] was > 1 and the EC50 (Influenza A virus) was > 744 µM.

Work on CC(N)C12CC3CC(CC(C3)C1)C2 (centres undefined) [RIMANTADINE HYDROCHLORIDE] yielded a selectivity ratio [1] of 4, an EC50 ([3]; Influenza A virus, MDCK, 48 h) of 67 µM and a selectivity ratio [4] of 5. It also gave an EC50 (Influenza A virus) of 83.8 µM.

For CC1(C)[C@@H]2CC[C@@]1(C)/C(=N/C1CC1)C2, the selectivity ratio [1] was 2, the CC50 at 48 h [2] was 1660 µM and the EC50 ([3]; Influenza A virus, MDCK, 48 h) was 592 µM. For the same molecule, the selectivity ratio [4] was 3 and the EC50 (Influenza A virus) was 738 µM.

Work on CCCCCCC/N=C1\C[C@H]2CC[C@]1(C)C2(C)C yielded a selectivity ratio [1] of 49, a CC50 at 48 h [2] of 234 µM and an EC50 ([3]; Influenza A virus, MDCK, 48 h) of 1.4 µM. The selectivity ratio [4] was 171 and the EC50 (Influenza A virus) was 4.8 µM.

For CC(N)[C@@H]1C[C@H]2CC[C@@H]1C2 (some centres undefined), the CC50 at 48 h [2] was 1260 to 1270 µM, the EC50 ([3]; Influenza A virus, MDCK, 48 h) was 206 to 209 µM and the EC50 (Influenza A virus) was 230 µM.

Work on CCCC/N=C1\C[C@H]2CC[C@]1(C)C2(C)C yielded a selectivity ratio [1] of 417, a CC50 at 48 h [2] of 2420 µM and an EC50 ([3]; Influenza A virus, MDCK, 48 h) of 7.7 µM. For the same molecule, the selectivity ratio [4] was 312 and the EC50 (Influenza A virus) was 5.8 µM.

With CC12CCC(CC1=O)C2(C)C (centres undefined) [CAMPHOR] the selectivity ratio [1] was 2, the EC50 [3] was 1640 µM and the selectivity ratio [4] was 2. It also gave an EC50 (Influenza A virus) of 1450 µM.

With CCCCCCCCCC/N=C1\C[C@H]2CC[C@]1(C)C2(C)C the selectivity ratio [1] was 5, the CC50 at 48 h [2] was 50.9 µM and the EC50 ([3]; Influenza A virus, MDCK, 48 h) was 17.2 µM. It also gave a selectivity ratio [4] of 3 and an EC50 (Influenza A virus) of 10.3 µM.

NC12CC3CC(CC(C3)C1)C2 [AMANTADINE] gave a selectivity ratio [1] of 4, a CC50 at 48 h [2] of 280 to 284 µM and an EC50 ([3]; Influenza A virus, MDCK, 48 h) of 64.2 to 70 µM. It also gave a selectivity ratio [4] of 4 and an EC50 (Influenza A virus) of 72.8 µM.

CCCCCCCC/N=C1\C[C@H]2CC[C@]1(C)C2(C)C showed a selectivity ratio [1] of 10, a CC50 at 48 h [2] of 97.3 µM and an EC50 ([3]; Influenza A virus, MDCK, 48 h) of 64.6 µM. The selectivity ratio [4] was 2 and the EC50 (Influenza A virus) was 9.9 µM.

With CCC/N=C1\C[C@H]2CC[C@]1(C)C2(C)C the selectivity ratio [1] was > 632, the CC50 at 48 h [2] was > 2590 µM and the EC50 ([3]; Influenza A virus, MDCK, 48 h) was 19.7 µM. For the same molecule, the selectivity ratio [4] was > 131 and the EC50 (Influenza A virus) was 4.1 µM.

With CC1(C)[C@@H]2CC[C@@]1(C)/C(=N/CCO)C2 the CC50 at 48 h [2] was 2500 µM, the EC50 ([3]; Influenza A virus, MDCK, 48 h) was 5 µM and the selectivity ratio [4] was 500.

CCCCC/N=C1\C[C@H]2CC[C@]1(C)C2(C)C showed a selectivity ratio [1] of 66, a CC50 at 48 h [2] of 801 µM and an EC50 ([3]; Influenza A virus, MDCK, 48 h) of 7.7 µM. The selectivity ratio [4] was 104 and the EC50 (Influenza A virus) was 12.2 µM.

With CCCCCCCCCCCC/N=C1\C[C@H]2CC[C@]1(C)C2(C)C the selectivity ratio [1] was < 2, the CC50 at 48 h [2] was 62.1 µM and the EC50 ([3]; Influenza A virus, MDCK, 48 h) was 15.7 µM. For the same molecule, the selectivity ratio [4] was 4 and the EC50 (Influenza A virus) was > 37.6 µM.

Molecule CCCCCC/N=C1\C[C@H]2CC[C@]1(C)C2(C)C has a selectivity ratio [1] of 16, a CC50 at 48 h [2] of 468 µM and an EC50 ([3]; Influenza A virus, MDCK, 48 h) of 26 µM. It also gave a selectivity ratio [4] of 18 and an EC50 (Influenza A virus) of 29.8 µM.
